From publication PMC7802075 (ACS Infectious Diseases, 2020) come the findings set out here.

Each structure is given as a SMILES string. Where a name gives a salt, the structure may show the parent alone. Where a SMILES comes first, the peptide text is derived from it. The star is where a group is joined. For = O=C*

The target in the first assay is T1, LmjIPCS (inositol phosphorylceramide synthase from L. major) (Leishmania major, UniProt E9AFX2).
T1 sequence (E9AFX2 1-338): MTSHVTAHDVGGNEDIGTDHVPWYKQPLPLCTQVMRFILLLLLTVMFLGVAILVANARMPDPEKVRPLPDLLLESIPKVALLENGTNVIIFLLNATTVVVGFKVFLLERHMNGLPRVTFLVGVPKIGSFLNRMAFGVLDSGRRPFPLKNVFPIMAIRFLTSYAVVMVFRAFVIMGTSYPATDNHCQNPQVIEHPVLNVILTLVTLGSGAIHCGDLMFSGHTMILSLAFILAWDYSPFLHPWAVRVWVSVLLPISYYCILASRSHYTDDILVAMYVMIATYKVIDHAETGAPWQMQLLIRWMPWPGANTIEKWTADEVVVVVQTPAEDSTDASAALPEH
In words: biochemical. In kind it is biochemical. More on the design: inhibition: dose or concentration left out as unconfirmed.
Details: not given
As to `Cc1ccsc1/C=C/C1=NCCCN1C` [MORANTEL], the “20mM inhibition LmjIPCS” value turned out to be 60%. Consider `N=C(NCCC[C@H](N)C(=O)O)N[N+](=O)[O-]` [N (g)-NITRO-L-ARGININE], for which the “20mM inhibition LmjIPCS” value was 1.68%.

For `CCN(CC)CCOC(=O)C(Cc1cccc2ccccc12)CC1CCCO1` (stereo not drawn) [NAFRONYL], the “20mM inhibition LmjIPCS” value is listed as 46%. Same read-out and setting: the same measure for `CN1CCOC(c2ccccc2)c2ccccc2C1` (stereo not drawn) [NEFOPAM]: 68%; for `O=C(O)C(O)C(O)C(=O)O.OCc1cccnc1` (stereo not drawn) [NICOTINYL]: 6%.

In the case of `COCCOC(=O)C1=C(C)NC(C)=C(C(=O)OC(C)C)C1c1cccc([N+](=O)[O-])c1` (stereo not drawn) [NIMODIPINE], the “20mM inhibition LmjIPCS” value is 36%. With `CCOC(=O)C1=C(C)NC(C)=C(C(=O)OC)C1c1cccc([N+](=O)[O-])c1` (stereo not drawn) [NITRENDIPINE], the “20mM inhibition LmjIPCS” value was found to be 39%.

For the compound `NC(=O)c1cc([N+](=O)[O-])cc([N+](=O)[O-])c1` [NITROMIDE], the “20mM inhibition LmjIPCS” value was 9%. Same read-out and setting: the same measure for `O=C1OC(=O)[C@H]2[C@@H]1[C@@H]1CC[C@H]2O1` [NORCANTHARIDIN]: 1.76%; for `C[C@@H]1[C@H](O)[C@@H](C)/C=C/C=C/CC/C=C/C=C/C=C/C=C/C(O[C@H]2O[C@H](C)[C@@H](O)[C@H](N)[C@@H]2O)CC2O[C@](O)(CC(O)C(O)CCC(O)CC(O)CC(O)CC(=O)O[C@H]1C)CC(O)C2C(=O)O` (stereo partly drawn) [NYSTATIN]: 32%.

In the case of `CC(=O)O.CNC(=N)NCCC[C@H](N)C(=O)O` [Ng-METHYL-L-ARGININE ACETATE], the “20mM inhibition LmjIPCS” value amounted to 0.168%.

The assay is the same for the next values; noted with them: NINDS set screen, compound at 20mM (so in the source).
`COc1ccc2cc([C@H](C)C(=O)O)ccc2c1` [NAPROXEN(+)]: the “20mM inhibition LmjIPCS” value came to 18%.

As to `COc1ccc(CCC(=O)c2c(O)cc(O[C@@H]3O[C@H](CO)[C@@H](O)[C@H](O)[C@H]3O[C@@H]3O[C@@H](C)[C@H](O)[C@@H](O)[C@H]3O)cc2O)cc1O` [NEOHESPERIDIN DIHYDROCHALCONE], the “20mM inhibition LmjIPCS” value was found to be 15%.

Staying with this assay, now noted: NINDS set screen, single concentration printed as 20mM.
In the case of `O=C1c2c(O)ccc(O)c2C(=O)c2c(NCCNCCO)ccc(NCCNCCO)c21` [MITOXANTHRONE], the “20mM inhibition LmjIPCS” value is on record as 63%. On the same count and under the same terms, the same measure for `N=C(N)NC(=O)c1nc(Cl)c(N2CCCCCC2)nc1N` [N,N-HEXAMETHYLENEAMILORIDE]: 65%; for `CC(CCc1ccccc1)NC(C)C(O)c1ccc(O)cc1` (stereo not drawn) [NYLIDRIN HYDROCHLORIDE]: 54%.

Staying with this assay, now noted: NINDS set screen; read-out: inhibition LmjIPCS.
As to `Cc1cc(-c2ccccc2)nnc1NCCN1CCOCC1` [MINAPRINE], the inhibition is 25%. For `CC(=O)N1CCCC1C(=O)O` (stereo not drawn) [N-ACETYLPROLINE], the inhibition is -1.28%. Same read-out and setting: the same measure for `O=C(NCO)c1cccnc1` [N-HYDROXYMETHYLNICOTINAMIDE]: 12%; for `COc1ccc2cc(CCC(C)=O)ccc2c1` [NABUMETONE]: 12%; for `NCC(O)c1ccc(O)cc1` (stereo not drawn) [OCTOPAMINE HYDROCHLORIDE]: 33%.

Still in this assay, the particulars now being: read-out: 20mM inhibition LmjIPCS.
Turning to `COc1ccc(OC)c(C(O)CNC(=O)CN)c1` (stereo not drawn) [MIDODRINE], the inhibition at 20000 µM turned out to be 13%.

As for `OCCN1C[C@H](O)[C@@H](O)[C@H](O)[C@H]1CO` [MIGLITOL], the inhibition at 20000 µM was -0.821%. In the case of `NC(Cn1ccc(=O)c(O)c1)C(=O)O` (stereo not drawn) [MIMOSINE], the inhibition at 20000 µM came to 3%. The same measure, in the same setting: as for `NC(=O)c1ncn([C@@H]2O[C@H](CO)[C@@H](O)[C@H]2O)c1O` [MIZORIBINE], the figure is 6.58%; as for `NC(=O)C[S+]([O-])C(c1ccccc1)c1ccccc1` (stereo not drawn) [MODAFINIL], 13%. As for `CCOC(=O)[N-]c1cn(N2CCOCC2)n[o+]1` [MOLSIDOMINE], the inhibition at 20000 µM was -0.951%.

`CC[C@@]1([C@@H]2O[C@@H]([C@H]3O[C@@](O)(CO)[C@H](C)C[C@@H]3C)C[C@@H]2C)CC[C@H]([C@]2(C)CC[C@]3(C[C@H](O)[C@@H](C)[C@@H]([C@@H](C)[C@@H](OC)[C@H](C)C(=O)O)O3)O2)O1` [MONENSIN]: the inhibition at 20000 µM was 0.265%. As to `C[C@H]1C(=O)O[C@@H]2CCN3CC=C(COC(=O)[C@](C)(O)[C@]1(C)O)[C@H]23` [MONOCROTALINE], the inhibition at 20000 µM was 2%. As to `O=c1c(O)c(-c2ccc(O)cc2O)oc2cc(O)cc(O)c12` [MORIN], the inhibition at 20000 µM came to 4%. For the compound `CO[C@@]1(NC(=O)C(C(=O)O)c2ccc(O)cc2)C(=O)N2C(C(=O)O)=C(CSc3nnnn3C)CO[C@@H]21` (stereo partly drawn) [MOXALACTAM], the inhibition at 20000 µM amounted to 10%. On the same count and under the same terms, the same measure for `COc1c(N2C[C@@H]3CCCN[C@@H]3C2)c(F)cc2c(=O)c(C(=O)O)cn(C3CC3)c12` [MOXIFLOXACIN]: 16%. On the same count and under the same terms, as for `CC(=O)N[C@@H](CC(=O)O)C(=O)O` [N-ACET[…]], the figure is -3%; as for `CCOc1ccc2ccccc2c1C(=O)N[C@@H]1C(=O)N2[C@@H]1SC(C)(C)[C@@H]2C(=O)O` [NAFCILLIN], 4.73%; as for `CCn1cc(C(=O)O)c(=O)c2ccc(C)nc21` [NALIDIXIC ACID], -11%. Still for that read-out and setting: as for `c1ccc2c(CC3=NCCN3)cccc2c1` [NAPHAZOLINE], the figure is 28%. As for `CC[C@@H](C(=O)O)[C@@H]1O[C@@H]([C@@H](C)[C@H](O)[C@H](C)C(=O)[C@H](CC)[C@H]2O[C@]3(C=C[C@@H](O)[C@]4(CC[C@@](C)([C@H]5CC[C@](O)(CC)[C@H](C)O5)O4)O3)[C@H](C)C[C@@H]2C)[C@@H](C)C[C@@H]1C` [NARASIN], the inhibition at 20000 µM is -0.161%. On the same count and under the same terms, as for `C[C@@H]1O[C@@H](O[C@H]2[C@H](Oc3cc(O)c4c(c3)O[C@H](c3ccc(O)cc3)CC4=O)O[C@H](CO)[C@@H](O)[C@@H]2O)[C@H](O)[C@H](O)[C@H]1O` [NARINGIN], the figure is 4.67%; as for `CN(C)C(=O)Oc1cccc([N+](C)(C)C)c1` [NEOSTIGMINE BROMIDE], 20%; as for `O=C(O)c1cccnc1` [NIACIN], 15%.

In the case of `CN1CCC[C@H]1c1cccnc1` [NICOTINE], the inhibition at 20000 µM turned out to be 10%. As for `CO[C@@H]1C[C@@H](C[C@H]2CC[C@H](C)[C@H]([C@@H](C)C(=O)O)O2)O[C@]2(O[C@](C)([C@H]3CC[C@@](C)([C@@H]4O[C@@H]([C@H]5O[C@@](O)(CO)[C@H](C)C[C@@H]5C)C[C@@H]4C)O3)C[C@H]2C)[C@@H]1C` [NIGERICIN], the inhibition at 20000 µM is -7.41%. Still for that read-out and setting: the same measure for `CC1(C)NC(=O)N(c2ccc([N+](=O)[O-])c(C(F)(F)F)c2)C1=O` [NILUTAMIDE]: 4%. On the same count and under the same terms, as for `CS(=O)(=O)Nc1ccc([N+](=O)[O-])cc1Oc1ccccc1` [NIMESULIDE], the figure is 11%; as for `Cc1ncc(CNC(=O)N(CCCl)N=O)c(N)n1` [NIMUSTINE], 20%; as for `NC(=O)N/N=C/c1ccc([N+](=O)[O-])o1` [NITROFURAZONE], 14%. Same read-out and setting: as for `NC[C@H](O)c1ccc(O)c(O)c1` [NOREPINEPHRINE], the figure is 12%; as for `C#C[C@]1(OC(C)=O)CC[C@H]2[C@@H]3CCC4=CC(=O)CC[C@@H]4[C@H]3CC[C@@]21C` [NORETHINDRONE ACETATE], 30%. Regarding `C#C[C@]1(O)CC[C@H]2[C@@H]3CCC4=C(CCC(=O)C4)[C@H]3CC[C@@]21C` [NORETHYNODREL], the inhibition at 20000 µM came out at 21%. The same measure, in the same setting: as for `c1ccc2c(c1)[nH]c1cnccc12` [NORHARMAN], the figure is 17%. Same read-out and setting: the same measure for `CO[C@@H]1[C@@H](OC(N)=O)[C@@H](O)[C@H](Oc2ccc3c(O)c(NC(=O)c4ccc(O)c(CC=C(C)C)c4)c(=O)oc3c2C)OC1(C)C` [NOVOBIOCIN]: 16%.

The assay is the same for the next values; noted with them: read-out: inhibition LmjIPCS.
As to `Nc1cc(N2CCCCC2)nc(N)[n+]1[O-]` [MINOXIDIL], the inhibition came to 15%. The same measure, in the same setting: the same measure for `COc1c(C)c2c(c(O)c1C/C=C(\C)CCC(=O)O)C(=O)OC2` [MYCOPHENOLIC ACID]: 4%; for `O=C1CC[C@@]2(O)[C@H]3Cc4ccc(O)c5c4[C@@]2(CCN3CC2CC2)[C@H]1O5` [NALTREXONE]: 8%. Still for that read-out and setting: as for `O=C1C[C@@H](c2ccc(O)cc2)Oc2cc(O)cc(O)c21` [NARINGENIN], the figure is 17%; as for `CC(C)=CCC/C(C)=C\CO` [NEROL], 33%. Same read-out and setting: the same measure for `COC(=O)C1=C(C)NC(C)=C(C(=O)OCCN(C)Cc2ccccc2)C1c1cccc([N+](=O)[O-])c1` (stereo not drawn) [NICARDIPINE]: -15%; for `Cc1c(NC(=O)c2cccnc2)c(=O)n(-c2ccccc2)n1C` [NIFENAZONE]: 11%. Consider `CN1Cc2c(N)cccc2C(c2ccccc2)C1` (stereo not drawn) [NOMIFENSINE], for which the inhibition stood at 5%. `CCn1cc(C(=O)O)c(=O)c2cc(F)c(N3CCNCC3)cc21` [NORFLOXACIN]: the inhibition is 17%. Regarding `COc1ccc2c(c1OC)C(=O)O[C@@H]2[C@H]1c2c(cc3c(c2OC)OCO3)CCN1C` [NOSCAPINE], the inhibition is 19%.

In the case of `CC1COc2c(N3CCN(C)CC3)c(F)cc3c(=O)c(C(=O)O)cn1c23` (stereo not drawn) [OFLOXACIN], the inhibition turned out to be 5%.

Still in this assay, the particulars now being: screening of NINDS set, sheet Screen 1; read-out: inhibition LmjIPCS.
Consider `CC(C)(C)NCC(O)COc1cccc2c1CC(O)C(O)C2` (stereo not drawn) [NADOLOL], for which the inhibition amounted to 9%. With `COc1ccc2cc([C@H](C)CO)ccc2c1` [NAPROXOL], the inhibition was found to be 4.4%.

For `CC(C)[C@H]1CC[C@H](C(=O)N[C@H](Cc2ccccc2)C(=O)O)CC1` [NATEGLINIDE], the inhibition stood at 7%.

Staying with this assay, now noted: single concentration 20mM as printed; screening of NINDS set, sheet Screen 1.
As to `CSCC[C@H](NC=O)C(=O)N[C@@H](Cc1ccccc1)C(=O)O` [N-FORMYLMETHIONYLPHENYLALANINE] (For-Met-Phe-OH), the “20mM inhibition LmjIPCS” value is 5.35%.

As a reminder, the inhibition is the relative decrease from the control value, in per cent.
